From EP3697386B1, “LIQUID COMPOSITIONS FOR PERORAL USE COMPRISING PHOSPHATIDYLGLYCEROL DERIVATIVES AND T[…] TREATING CARDIAC CHANN[…] BY PHARMACOLOGICAL AGENTS” (Signpath Pharma, Inc., priority 2017, dated 2019)

Molecular target: hERG (Homo sapiens, UniProt Q12809)
Assay: Whole-cell patch-clamp of IKr hERG tail current: protective effect of lipids against hERG inhibition by Nilotinib
Settings: for activity at 5 min: human, herg hek293 cells

Chain of hERG (Q12809 whole entry): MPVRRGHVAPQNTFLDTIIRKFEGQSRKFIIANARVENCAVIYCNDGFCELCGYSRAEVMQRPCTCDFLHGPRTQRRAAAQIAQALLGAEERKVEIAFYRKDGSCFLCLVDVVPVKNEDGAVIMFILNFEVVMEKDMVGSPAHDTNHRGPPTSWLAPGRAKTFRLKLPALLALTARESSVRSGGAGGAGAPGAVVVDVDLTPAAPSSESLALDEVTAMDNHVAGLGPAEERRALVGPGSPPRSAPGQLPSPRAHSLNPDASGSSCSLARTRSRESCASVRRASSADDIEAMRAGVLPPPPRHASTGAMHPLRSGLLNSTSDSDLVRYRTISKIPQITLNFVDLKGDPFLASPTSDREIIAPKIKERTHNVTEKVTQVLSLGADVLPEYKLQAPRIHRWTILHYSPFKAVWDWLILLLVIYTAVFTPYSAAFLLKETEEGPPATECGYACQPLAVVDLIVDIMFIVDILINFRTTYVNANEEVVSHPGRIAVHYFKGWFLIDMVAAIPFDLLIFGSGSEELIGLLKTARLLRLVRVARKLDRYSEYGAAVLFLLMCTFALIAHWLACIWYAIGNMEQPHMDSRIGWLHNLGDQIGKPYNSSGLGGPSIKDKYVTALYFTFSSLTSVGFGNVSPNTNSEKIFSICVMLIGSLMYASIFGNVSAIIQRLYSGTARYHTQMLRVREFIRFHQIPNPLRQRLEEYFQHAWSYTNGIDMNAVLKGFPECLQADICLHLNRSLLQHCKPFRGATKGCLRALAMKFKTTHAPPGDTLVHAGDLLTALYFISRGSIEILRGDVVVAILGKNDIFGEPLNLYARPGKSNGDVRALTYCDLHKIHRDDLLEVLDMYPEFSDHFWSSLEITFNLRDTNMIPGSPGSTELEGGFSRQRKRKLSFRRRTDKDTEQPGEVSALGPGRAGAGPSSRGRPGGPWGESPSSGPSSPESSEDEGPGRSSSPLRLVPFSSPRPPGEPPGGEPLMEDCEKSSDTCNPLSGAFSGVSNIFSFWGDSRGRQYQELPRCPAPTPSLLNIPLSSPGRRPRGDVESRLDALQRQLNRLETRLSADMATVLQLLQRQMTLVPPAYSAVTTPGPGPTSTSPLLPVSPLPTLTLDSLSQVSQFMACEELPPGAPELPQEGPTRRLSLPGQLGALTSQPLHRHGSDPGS

| Compound | Normalized Current Density (lipid alone in aqueous solution, 5 minutes exposure, hERG-transfected HEK 293 cells, tail current at -55 mV, baseline = 1.000) | activity at 5 min [%] | activity at 5 min (Normalized Current Density, lipid alone in aqueous solution, 5 minutes exposure, hERG-transfected HEK 293 cells, tail current at -55 mV, baseline = 1.000) [%] |
| --- | --- | --- | --- |
| 12-Mysteroyl-2-Hydroxy-sn-Glycero-3-[Phospho-rac-(glycerol)] [DMPG] | 0.800 | – | – |
| CCCCCCCCCCCCCC(=O)OC[C@H](COP(=O)([O-])OCC[N+](C)(C)C)OC(=O)CCCCCCCCCCCCC [DMPC, 1,2-dimyristoyl-sn-glycero-3-phosphocholine] | – | 106 | 86.3 |
